Assay results from patent US20250243174A1, “ANTITUMORAL COMPOUNDS” (PHARMA MAR, S.A., priority 2021, published 2025).
Where two headings read alike, the source gives them in different places.

Columns and labels:
A549 = assay: SRB colorimetric cytotoxicity assay, A549; type: cell-based; conditions: Homo sapiens, read-out: GI50 (M) A549
Description: The aim of this assay is to evaluate the in vitro cytostatic (ability to delay or arrest tumor cell growth) or cytotoxic (ability to kill tumor cells) activity of the samples being tested.
A colorimetric assay, using sulforhodamine B (SRB) reaction has been adapted to provide a quantitative measurement of cell growth and viability (using the technique developed by Skehan et al., J. Natl. Cancer Inst. 1990 and following the protocol detailed in V. Vichai and K. Kirtikara (2006) Nature Protoc. 1, 1112-1116.)
This form of assay employs 96-well cell culture microplates. All the cell lines used in this study were obtained from the American Type Culture Collection (ATCC), unless otherwise indicated, and derive from different types of human cancer.
Cells were maintained in Dulbecco's Modified Eagle Medium (DMEM) (for A549, HT-29 and MDA-MB-231) or RPMI (for PSN-1) supplemented with 10% Fetal Bovine Serum (FBS), 2 mM L-glutamine, 100 U/mL penicillin and 100 U/mL streptomycin at 37° C., 5% CO2 and 98% humidity. For the experiments, cells were harvested from subconfluent cultures using trypsinization and resuspended in fresh medium before counting and plating.
Cells were seeded in 96 well microtiter plates, at 5×10^3 cells per well in aliquots of 150 μL, and allowed to attach to the plate surface for 18 hours (overnight) in drug free medium. After that, one control (untreated) plate of each cell line was fixed (as described below) and used for time zero reference value. Culture plates were then treated with test compounds (50 μL aliquots of 4× concentrated compound stock solutions made in complete culture medium) using ten serial dilutions (concentrations ranging from […]) and triplicate cultures (final concentration of DMSO being 1%). After 72 hours treatment, the antitumor effect was measured by using the SRB methodology: Briefly, cells were washed twice with PBS, fixed for 15 min in 1% glutaraldehyde solution at room temperature, rinsed twice in PBS, and stained in 0.4% SRB solution for 30 min at room temperature. Cells were then rinsed several times with 1% acetic acid solution and air-dried at room temperature. SRB was then extracted in 10 mM trizma base solution and the absorbance measured in an automated spectrophotometric plate reader at 490 nm. Effects on cell growth and survival were estimated by applying the NCI algorithm (Boyd M R and Paull K D. Drug Dev. Res. 1995, 34, 91-104).
Using the mean±SD of triplicates, a dose-response curve was automatically generated using nonlinear regression analysis to a 4-parameter logistic curve. Three reference parameters were calculated (NCI algorithm) by automatic interpolation: GI50=compound concentration that produces […] cell growth inhibition, as compared to control cultures.

H460 xenografts = assay: Example 5, NSCLC xenograft model H460; type: in vivo; conditions: for tumor reduction compared to placebo: higher doses 16, 2 or 1 mg/kg; for TV, median (IQR) / Median survival time: iv Q7dx3; for TV, median (IQR): high dose: PM060184 16, Comp. 2 2, Comp. 3 1 mg/kg; for antitumor activity compared to PM060184 (16 mg/kg) / mean time frame during which the animals had tumor remission / mean body weight reduction: compound 2 2.0 mg/kg, compound 3 1.0 mg/kg; for animals with complete tumor remission: highest dose: compound 2 2.0, compound 3 1.0 mg/kg; for mean body weight reduction: recorded on Day 9
Experimental: Female athymic nu/nu mice (Harlan Laboratories Models, S.L. Barcelona, Spain or Envigo, Spain) were utilized for all experiments. Animal were housed in individually ventilated cages Sealsafe® Plus, Techniplast S.P.A.), up to ten per cage on a 12-hour light-dark cycle at 21-23° C. and 40-60% humidity. Mice were allowed free access to irradiated standard rodent diet (Tecklad 2914C) and sterilized water. Animals were acclimated for at least 5 days prior to tumor implantation with a tumor cell suspension.
H460 cells were maintained in vitro at 37° C. with 5% CO2 in Dulbecco's Modified Eagle's Medium (Sigma-Aldrich, Co). Culture cells were passaged every 3 to 5 days upon reaching confluence. Each animal was subcutaneously implanted (on the right flank using 26G needle and a 1 cc syringe) at 4-6 weeks of age with 5×10^6 H460 cells suspended in 0.05 mL of a solution consisting of 50% Matrigel® (Corning Incorporated Life Sciences) and 50% medium without serum or antibiotics.
All treatments were intravenously administered on a weekly basis at their MTD, ¼ MTD and 1/16 MTD (high, medium and low dose).
Briefly: • 4 to 6 week-old athymic nu/nu female mice were subcutaneously implanted with tumor cells growing in culture. • When tumors reached a certain volume, tumor bearing animals (N=8-10/group) were randomly allocated into treatment groups. • Tumor dimensions and body weights were recorded 2-3 times per week starting from the first day of treatment (Day 0). Treatments producing >20% lethality and/or 20% net body weight loss were considered toxic. Tumor volume was calculated using the equation (a·b^2)/2, where a and b were the longest and shortest diameters, respectively. Animals were euthanized when their tumors reached ca. 2,000 mm^3 and/or severe necrosis was seen. • Median was calculated for tumor volume on each measurement day. • Antitumor effect was assessed comparing tumor volume data from groups following the 1st, 2nd, 3rd study weeks, or more depending on the case, using a two-tailed Mann-Whitney U test. The data are presented as medians and interquartile range (IQR). • Complete tumor regression (CR) was defined when tumor volume<63 mm^3 for 2 or more consecutive measurements. • Treatment tolerability was assessed by monitoring body weight evolution, clinical signs of systemic toxicity as well as evidences of local damage at the injection site.
PM060184 was provided in the form of freeze-dried vials of lyophilized product. Each vial was reconstituted with water for infusion to a concentration of 2.5 mg/mL.
Compounds 2 and 3 were provided in the powder form and were solubilized with hydroxy-propyl-β-cyclodextrin (HPβCD), reaching a concentration of 1 mg/ml or 0.2 mg/ml, respectively. Placebo was provided in the form of lyophilised cake containing 1.2 g of hydroxy-propyl-β-cyclodextrin (HPβCD) which was reconstituted with water for infusion.
In these experiments, compounds 2, 3 and PM060184, as well as placebo, were intravenously administered once per week for 3 consecutive weeks, on Days 0, 7 and 14, whenever it was possible.
The experiment was carried out as previously explained. When tumors reached ca. 160-170 mm^3, tumor bearing animals (N=10/group) were randomly allocated into the following treatment groups:
Treatments were initiated on Day 0.

[1] = high dose: compound 2 2.0, compound 3 1.0, PM060184 16 mg/kg
[2] = low dose: PM060184 1.0, Comp. 2 0.125, Comp. 3 0.0625 mg/kg
[3] = high dose: PM060184 16.0, Comp. 2 2.0, Comp. 3 1.0 mg/kg
[4] = medium dose: PM060184 4.0, Comp. 2 0.5, Comp. 3 0.25 mg/kg

| Compound | GI50 (A549; A549, 72 h) [M] | tumor reduction compared to placebo (H460 xenografts; Day 7) | TV, median (IQR) (H460 xenografts; Day 7) | TV, median (IQR) (H460 xenografts; Day 14) | TV, median (IQR) (H460 xenografts; Day 21) | TV, median (IQR) (H460 xenografts; Day 28) | TV, median (IQR) (H460 xenografts; Day 35) | antitumor activity compared to PM060184 (16 mg/kg) (H460 xenografts) | mean time frame during which the animals had tumor remission (H460 xenografts) [days] | tumor remissions lasted (H460 xenografts; [1]) | animals with complete tumor remission (H460 xenografts) [%] | Median survival time (H460 xenografts; [2]) [days] | mean body weight reduction (H460 xenografts) | Median survival time (H460 xenografts; [3]) [days] | Median survival time (H460 xenografts; [4]) [days] | other results |
| --- | --- | --- | --- | --- | --- | --- | --- | --- | --- | --- | --- | --- | --- | --- | --- | --- |
| COC1=CC[C@@H]([C@@H](C)/C=C(C)/C=C\C=C/C(=O)N[C@H](C(=O)N/C=C\C[C@H](CC=C(C)C)OC(N)=O)C(C)(C)C)OC1=O [Compound 3] | 5.98e-11 | very strong, statistically significant tumor reduction | 123.9 (93.4-157.6) mm3 | 80.3 (71.0-83.5) mm3 | 59.3 (38.7-62.5) mm3 | 77.6 (55.3-85.1) mm3 | 374.8 (257.4-438.2) mm3 | stronger, statistically significant, antitumor activity | 7.8 | more than 45.1 days | 100 | 14 | ca. −18.5% |  |  | antitumor activity of compound 3 compared to compound 2 (H460 xenografts; at the MTD's, 1.0 mg/kg or 2.0 mg/kg): statistically significant higher antitumor activity than compound 2; Median survival time (H460 xenografts; high dose: PM060184 16.0, Comp. 2 2.0, Comp. 3 1.0 mg/kg, 1 mg/kg): 45.5 days; Median survival time (H460 xenografts; high dose: PM060184 16.0, Comp. 2 2.0, Comp. 3 1.0 mg/kg, listed as Comp. 3, 1 mg/kg): 48 days; Median survival time (H460 xenografts; medium dose: PM060184 4.0, Comp. 2 0.5, Comp. 3 0.25 mg/kg, 0.25 mg/kg): 40 days; Median survival time (H460 xenografts; medium dose: PM060184 4.0, Comp. 2 0.5, Comp. 3 0.25 mg/kg, listed as Comp. 3, 0.25 mg/kg): 38.5 days |
| COC1=CC[C@@H]([C@@H](C)/C=C(C)/C=C\C=C/C(=O)N[C@H](C(=O)N/C=C\C[C@H](C/C=C(\C)F)OC(N)=O)C(C)(C)C)OC1=O [Compound 2] | 4.55e-11 | very strong, statistically significant tumor reduction | 114.7 (97.2-131.6) mm3 | 80.9 (61.1-109.3) mm3 | 53.5 (33.4-59.7) mm3 | 95.0 (73.2-119.1) mm3 | 505.4 (428.9-583.7) mm3 | stronger, statistically significant, antitumor activity | 8.8 | more than 48 days | 100 | 14 | ca. −13.4% | 45.5 | 40 | tumor remissions lasted (H460 xenografts; medium dose: compound 2 0.5 mg/kg): 30.9 days |
| C/C=C\C[C@@H](C/C=C\NC(=O)[C@@H](NC(=O)\C=C/C=C\C(C)=C\[C@H](C)[C@@H]1CC=C(OC)C(=O)O1)C(C)(C)C)OC(N)=O [PM060184, reference compound] |  | very strong, statistically significant tumor reduction | 100.1 (80.6-119.0) mm3 | 97.8 (74.5-149.3) mm3 | 129.4 (83.5-172.3) mm3 | 631.0 (454.0-873.9) mm3 | 1470 (1470-1666) mm3 |  |  | two |  | 16 |  | 37 | 30 | GI50 (A549; A549, 72 hours treatment, SRB): 1.71e-10 M; animals with complete tumor remission (number out of 10) (H460 xenografts; PM060184 16 mg/kg): Four out of 10; body weight decrease (H460 xenografts; recorded on Day 12, PM060184 16 mg/kg): ca. −6.8% |
